pIC50: −log10 of the molar value. Numbered stars: 1 amine (or outer) side, 2 acyl side, 3 side chain; on linkers, the order of the positions; unused ones are H or OH. Bridge positions count the residues as written; N and C are the ends. Square brackets hold non-standard residues; d marks the D form. Peptide text beside a SMILES is read from it. * marks the point of attachment. hPhe(3,5-F2-4-CF3) = N[C@@H](CCc1cc(F)c(C(F)(F)F)c(F)c1)C(=O)O; hPhe(3-Cl-4-CF3) = N[C@@H](CCc1ccc(C(F)(F)F)c(Cl)c1)C(=O)O; hPhe(3-F,4-CF3) = N[C@@H](CCc1ccc(C(F)(F)F)c(F)c1)C(=O)O; NMePhe(4-CF3) = CN[C@@H](Cc1ccc(C(F)(F)F)cc1)C(=O)O; NMePhe(4-Me) = CN[C@@H](Cc1ccc(C)cc1)C(=O)O; NMedβ3hAla = C[C@H](CC(=O)[*:2])N(C)[*:1]; Phe(4-Cl) = N[C@@H](Cc1ccc(Cl)cc1)C(=O)O; NMeGly(cPent) = CN[C@H](C(=O)O)C1CCCC1; Phe(3-I) = N[C@@H](Cc1cccc(I)c1)C(=O)O; Pro(4,4-F2) = O=C(O)[C@@H]1CC(F)(F)CN1; NMeCha = CN[C@@H](CC1CCCCC1)C(=O)O; NMehLeu = CN[C@@H](CCC(C)C)C(=O)O; Hyp = O=C(O)[C@@H]1C[C@@H](O)CN1; NMeAhp(2) = CCCCC[C@H](NC)C(=O)O; NMeChg = CN[C@H](C(=O)O)C1CCCCC1; NMeI = CC[C@H](C)[C@H](NC)C(=O)O; NMeD = CN[C@@H](CC(=O)O)C(=O)O; NMeL = CN[C@@H](CC(C)C)C(=O)O; NMehSer = CN[C@@H](CCO)C(=O)O; d(β3hP) = O=C(O)C[C@H]1CCCN1; NMeV = CN[C@H](C(=O)O)C(C)C; NMeS = CN[C@@H](CO)C(=O)O; Ac6c = NC1(C(=O)O)CCCCC1; Morpholide = C1CN(*)CCO1; NMeA = CN[C@@H](C)C(=O)O; NMeAib = CNC(C)(C)C(=O)O; Piperidide = C1CCN(*)CC1; Pyrrolidide = C1CCN(*)C1; dNMeA = CN[C@H](C)C(=O)O; Ac5c = NC1(C(=O)O)CCCC1; Aze = O=C(O)[C@@H]1CCN1; Cyclobutyl = C1CC(*)C1; Ac3c = NC1(C(=O)O)CC1; Aib = CC(C)(N)C(=O)O; Sar = CNCC(=O)O; Propyl = CCC*
system: Human pancreatic cancer cell line AsPC-1 (G12D mutation Kras); assay: AsPC-1 cell growth inhibition (AsPC-1 CGI); assay type: cell-based; details: read-out: AsPC-1 cell growth inhibition, 50% growth inhibitory concentration (IC50 value); 96 hours, CellTiter-Glo, values classified in ranges
Description: Test compounds were serially dilated with dimethyl sulfoxide, and 200 nL was then dispensed to a U-bottom 96-well plate using Labcyte Echo. […] The cell suspension was dispensed to a. plate containing a test compound at 100 μL per well and incubated at 37° C. in a 5% carbon dioxide gas incubator. 96 hours later, 80 μL of CellTiter-Glo (Promega) was added to each well and fluorescence was measured.

| Structure (SMILES) | pIC50 |
| --- | --- |
| CC[C@H](C)[C@@H]1NC(=O)[C@H](CC(C)C)N(C)C(=O)C[C@@H](C(=O)N2CCCC2)N(C)C(=O)[C@H](C2CCCC2)N(C)C(=O)C2(CCCC2)NC(=O)[C@@H]2CC(F)(F)CN2C(=O)[C@H](CCc2ccc(C(F)(F)F)c(Cl)c2)NC(=O)CN(C)C(=O)[C@H](CC2CCCCC2)N(C)C(=O)CN(C)C(=O)CN(C)C1=O [Compound 1270] ([NMeL]I[Sar][Sar][NMeCha][Sar][hPhe(3-Cl-4-CF3)][Pro(4,4-F2)][Ac5c][NMeGly(cPent)][NMeD]-Pyrrolidide; lactam N-11) | ≥ 7.70 |
| CC[C@H](C)[C@@H]1NC(=O)[C@H](C)N(C)C(=O)C[C@@H](C)N(C)C(=O)[C@H](C2CCCCC2)N(C)C(=O)C2(CCCC2)NC(=O)[C@@H]2CCCN2C(=O)[C@H](CCc2ccc(C(F)(F)F)c(Cl)c2)NC(=O)CN(C)C(=O)[C@H](CC2CCCCC2)N(C)C(=O)CN(C)C(=O)CN(C)C1=O [Compound 1808] (cyclo([Ac5c][NMeChg][NMedβ3hAla][NMeA]I[Sar][Sar][NMeCha][Sar][hPhe(3-Cl-4-CF3)]P)) | < 6.30 |
| CC[C@H](C)[C@@H]1NC(=O)[C@H](CC(C)C)N(C)C(=O)C[C@@H](C(=O)N2CCCCC2)N(C)C(=O)[C@H](CC(C)C)NC(=O)C(C)(C)N(C)C(=O)[C@H](Cc2ccc(Cl)cc2)NC(=O)[C@H](Cc2cccc(I)c2)NC(=O)CN(C)C(=O)[C@H](CC2CCCCC2)N(C)C(=O)CN(C)C(=O)CN(C)C1=O [Compound 330] ([NMeL]I[Sar][Sar][NMeCha][Sar][Phe(3-I)][Phe(4-Cl)][NMeAib]L[NMeD]-Piperidide; lactam N-11) | < 6.30 |
| CCCCC[C@H]1C(=O)N(C)[C@H](C(=O)N2CCCCC2)CC(=O)N(C)[C@@H](CC(C)C)C(=O)N[C@@H]([C@@H](C)CC)C(=O)N(C)CC(=O)N(C)CC(=O)N(C)[C@@H](CC2CCCCC2)C(=O)N(C)CC(=O)N[C@@H](CCc2ccc(C(F)(F)F)c(Cl)c2)C(=O)N2CCC[C@H]2C(=O)NC2(CCCC2)C(=O)N1C [Compound 1719] ([NMeL]I[Sar][Sar][NMeCha][Sar][hPhe(3-Cl-4-CF3)]P[Ac5c][NMeAhp(2)][NMeD]-Piperidide; lactam N-11) | < 6.30 |
| CC(C)C[C@H]1C(=O)N[C@@H](COC2CCC2)C(=O)N(C)CC(=O)N(C)CC(=O)N(C)[C@@H](CC2CCCCC2)C(=O)N(C)CC(=O)N[C@@H](CCc2ccc(C(F)(F)F)c(Cl)c2)C(=O)N2CCC[C@H]2C(=O)NC2(CCCC2)C(=O)N(C)[C@@H](C2CCCCC2)C(=O)N(C)[C@H](C(=O)N2CCCCC2)CC(=O)N1C [Compound 226] ([NMeL]S(Cyclobutyl)[Sar][Sar][NMeCha][Sar][hPhe(3-Cl-4-CF3)]P[Ac5c][NMeChg][NMeD]-Piperidide; lactam N-11) | < 6.30 |
| CC[C@H](C)[C@@H]1NC(=O)[C@H](CC(C)C)N(C)C(=O)C[C@@H](C)N(C)C(=O)[C@H](C(C)C)N(C)C(=O)C2(CC2)NC(=O)[C@@H]2CCCN2C(=O)[C@H](CCc2ccc(C(F)(F)F)c(Cl)c2)NC(=O)CN(C)C(=O)[C@H](CC2CCCCC2)N(C)C(=O)CN(C)C(=O)CN(C)C1=O [Compound 268] (cyclo([Ac3c][NMeV][NMedβ3hAla][NMeL]I[Sar][Sar][NMeCha][Sar][hPhe(3-Cl-4-CF3)]P)) | < 6.30 |
| CC[C@H](C)[C@@H]1NC(=O)[C@H](CC(C)C)N(C)C(=O)C[C@H]2CCCN2C(=O)[C@H](C2CCCCC2)N(C)C(=O)C2(CCCC2)NC(=O)[C@@H]2CCCN2C(=O)[C@H](CCc2ccc(C(F)(F)F)c(Cl)c2)NC(=O)CN(C)C(=O)[C@H](CC2CCCCC2)N(C)C(=O)CN(C)C(=O)CN(C)C1=O [Compound 1185] (cyclo([Ac5c][NMeChg][d(β3hP)][NMeL]I[Sar][Sar][NMeCha][Sar][hPhe(3-Cl-4-CF3)]P)) | < 6.30 |
| CC[C@H](C)[C@@H]1NC(=O)[C@H](CCC(C)C)N(C)C(=O)C[C@@H](C(=O)N(C)C)N(C)C(=O)[C@H](C2CCCC2)N(C)C(=O)C2(CCCC2)NC(=O)[C@@H]2CCCN2C(=O)[C@H](CCc2ccc(C(F)(F)F)c(Cl)c2)NC(=O)CN(C)C(=O)[C@H](Cc2ccc(C)cc2)N(C)C(=O)[C@@H]2CCN2C(=O)[C@H](C)NC1=O [Compound 303] ([NMehLeu]IA[Aze][NMePhe(4-Me)][Sar][hPhe(3-Cl-4-CF3)]P[Ac5c][NMeGly(cPent)][NMeD]-NMe2; lactam N-11) | ≥ 7.70 |
| CC[C@H](C)[C@@H]1NC(=O)[C@H](CC(C)C)N(C)C(=O)C[C@@H](C(=O)N2CCCCC2)N(C)C(=O)[C@H](CCOC)N(C)C(=O)C2(CCCC2)NC(=O)[C@@H]2CCCN2C(=O)[C@H](CCc2ccc(C(F)(F)F)c(Cl)c2)NC(=O)CN(C)C(=O)[C@H](CC2CCCCC2)N(C)C(=O)CN(C)C(=O)CN(C)C1=O [Compound 744] ([NMeL]I[Sar][Sar][NMeCha][Sar][hPhe(3-Cl-4-CF3)]P[Ac5c][NMehSer](Me)[NMeD]-Piperidide; lactam N-11) | < 6.30 |
| CC[C@H](C)[C@@H]1NC(=O)[C@H](C)N(C)C(=O)C[C@@H](C(=O)N2CCCC2)N(C)C(=O)[C@H](C(C)C)N(C)C(=O)C2(CCCC2)NC(=O)[C@@H]2CCCN2C(=O)[C@H](CCc2ccc(C(F)(F)F)c(Cl)c2)NC(=O)[C@@H](C)N(C)C(=O)[C@H](CC2CCCCC2)N(C)C(=O)[C@@H]2CCCN2C(=O)CN(C)C1=O [Compound 1715] ([NMeA]I[Sar]P[NMeCha][dNMeA][hPhe(3-Cl-4-CF3)]P[Ac5c][NMeV][NMeD]-Pyrrolidide; lactam N-11) | < 6.30 |
| CC[C@H](C)[C@@H]1NC(=O)[C@H](CC(C)C)N(C)C(=O)C[C@@H](C(=O)N2CCCCC2)N(C)C(=O)[C@H](C2CCCCC2)N(C)C(=O)C2(CCCCC2)NC(=O)[C@@H]2CCCN2C(=O)[C@H](CCc2ccc(C(F)(F)F)c(Cl)c2)NC(=O)CN(C)C(=O)[C@H](CC2CCCCC2)N(C)C(=O)CN(C)C(=O)CN(C)C1=O [Compound 1644] ([NMeL]I[Sar][Sar][NMeCha][Sar][hPhe(3-Cl-4-CF3)]P[Ac6c][NMeChg][NMeD]-Piperidide; lactam N-11) | < 6.30 |
| CCO[C@@H]1C[C@H]2C(=O)NC3(CCCC3)C(=O)N(C)[C@@H]([C@@H](C)CC)C(=O)N(C)[C@H](C(=O)N3CCOCC3)CC(=O)N(C)[C@@H](CC(C)C)C(=O)N[C@@H]([C@@H](C)CC)C(=O)N(C)[C@@H](C)C(=O)N3CC[C@H]3C(=O)N(C)[C@@H](Cc3ccc(C(F)(F)F)cc3)C(=O)N(C)CC(=O)N[C@@H](CCc3cc(F)c(C(F)(F)F)c(F)c3)C(=O)N2C1 [Compound 1261] ([NMeL]I[NMeA][Aze][NMePhe(4-CF3)][Sar][hPhe(3,5-F2-4-CF3)][Hyp](Et)[Ac5c][NMeI][NMeD]-Morpholide; lactam N-11) | ≥ 7.70 |
| CC[C@H](C)[C@@H]1NC(=O)[C@H](CC(C)C)N(C)C(=O)C[C@@H](C(=O)N2CCCCC2)N(C)C(=O)[C@H](C(C)C)N(C)C(=O)C(C)(C)NC(=O)[C@@H]2CCCN2C(=O)[C@H](CCc2ccc(C(F)(F)F)c(F)c2)NC(=O)CN(C)C(=O)[C@H](CC2CCCCC2)N(C)C(=O)CN(C)C(=O)CN(C)C1=O [Compound 522] ([NMeL]I[Sar][Sar][NMeCha][Sar][hPhe(3-F,4-CF3)]P[Aib][NMeV][NMeD]-Piperidide; lactam N-11) | < 6.30 |
| CCCOC[C@H]1C(=O)N(C)CC(=O)N[C@@H](CCc2ccc(C(F)(F)F)c(F)c2)C(=O)N2CCC[C@H]2C(=O)NC2(CCCC2)C(=O)N(C)[C@@H](C2CCCC2)C(=O)N(C)[C@H](C(=O)N2CCCC2)CC(=O)N(C)[C@@H](CC(C)C)C(=O)N[C@@H]([C@@H](C)CC)C(=O)N(C)[C@@H](C)C(=O)N2CC[C@H]2C(=O)N1C [Compound 987] ([NMeL]I[NMeA][Aze][NMeS](Propyl)[Sar][hPhe(3-F,4-CF3)]P[Ac5c][NMeGly(cPent)][NMeD]-Pyrrolidide; lactam N-11) | ≥ 7.70 |

From US20240148821A1, “PHARMACEUTICAL USE OF CYCLIC PEPTIDE COMPOUND” (CHUGAI SEIYAKU KABUSHIKI KAISHA, priority 2021, published 2024)
